Source: patent publication US20220169654A1, “New Organic Compounds” (Servier Pharmaceuticals LLC, priority 2020, published 2022)

Tests used:
MAT2A homodimer = molecular target: T1, MAT2A homodimer (Homo sapiens, UniProt P31153); experiment: MAT2A inhibition (biochemical, liberated phosphate, PiColorLock Gold); details: recombinant MAT2A homodimer; IC50 bin with Max Inh.; read-out: Enzyme Inhibition Bin
T1 construct: inferred from Ni sepharose purification with imidazole elution; made in house; host or cells: Sf9 insect cells, baculovirus (Bac to Bac, pFASTBAC1)
T1 sequence (P31153 whole entry): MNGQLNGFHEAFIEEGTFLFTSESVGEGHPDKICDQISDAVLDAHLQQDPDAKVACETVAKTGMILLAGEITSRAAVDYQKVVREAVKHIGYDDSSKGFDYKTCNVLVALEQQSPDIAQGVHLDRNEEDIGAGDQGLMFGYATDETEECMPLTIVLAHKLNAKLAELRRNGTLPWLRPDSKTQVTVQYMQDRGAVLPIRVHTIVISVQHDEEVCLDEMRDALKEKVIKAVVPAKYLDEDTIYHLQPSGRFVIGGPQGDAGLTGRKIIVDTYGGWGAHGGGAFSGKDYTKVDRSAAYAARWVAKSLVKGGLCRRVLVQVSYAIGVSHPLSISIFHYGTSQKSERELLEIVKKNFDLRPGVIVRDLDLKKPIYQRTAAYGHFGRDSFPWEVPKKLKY
Procedure, shortened: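 Baculovirus/Sf9-expressed, Ni-purified MAT2A (4 μg/mL) preincubated with compound 60 min at 25 °C in Tris pH 8.0/KCl/MgCl2 buffer. Reaction started with 500 μM ATP and 400 μM L-methionine (substrate-mix concentrations), run 60 min at 25 °C. Phosphate measured colorimetrically against a phosphate standard curve to give IC50.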

[1] = system: SAM in HCT116 human colon carcinoma cell line with MTAP gene deleted (MTAP −/−); experiment: Cellular assay of target engagement (SAM), LC-MS/MS, 72 hrs; format: cell-based; details: HCT-116, IC50 bin with Max Inh., read-out: Cell 72 h SAM Inhibition (MTAP −/−)
Procedure, shortened: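 MTAP-deleted HCT116 cells plated 24 h, then given 10-point 3-fold dilutions for 72 hrs at 37° C. Intracellular SAM extracted in cold 80% methanol with 1M acetic acid and d3-SAM standard, quantified by LC-MS/MS (MRM m/z 399.2→250.1); IC50 derived.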

HCT116 MTAP−/− = experiment: Inhibition of cellular proliferation, 4 days, Cell Titer Glo, HCT116 MTAP−/−; format: cell-based; details: Homo sapiens, HCT-116, 96 h, IC50 bin with Max Inh., read-out: 4 Day Relative Growth Inhibition (MTAP −/−)
Procedure, shortened: (§1)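 Isogenic HCT116 pair differing only in MTAP status, plated 24 h before treatment with 10-point 3-fold dilutions; 4 days at 37° C./5% CO2. Cell Titer Glo luminescence, blank-subtracted and normalised to 0.2% DMSO control, gives percentage proliferation vs log molar concentration for IC50.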

HCT116 MTAP+/+ = experiment: Inhibition of cellular proliferation, 4 days, Cell Titer Glo, HCT116 MTAP+/+; format: cell-based; details: Homo sapiens, HCT-116, 96 h, IC50 bin with Max Inh., read-out: 4 Day Relative Growth Inhibition (MTAP +/+)
Procedure, shortened: as §1

| IC50 (MAT2A homodimer) [nM] | IC50 [1] [nM] | IC50 (HCT116 MTAP−/−) [nM] | IC50 (HCT116 MTAP+/+) [nM] | SMILES |
| --- | --- | --- | --- | --- |
| < 100 | < 100 | < 100 | 100 to 1000 | Cn1cc2cc(-n3nc4c(C#N)cn(CC5CC5)c4c(-c4ccc(C5CC5)nc4)c3=O)ccc2n1 [Example 107, 5-(cyclopropylmethyl)-4-(6-cyclopropylpyridin-3-yl)-2-(2-methyl-2H-indazol-5-yl)-3-oxo-3,5-dihydro-2H-pyrrolo[3,2-c]pyridazine-7-carbonitrile] |
| < 100 | < 100 | < 100 | > 1000 | Cn1cc2cc(-n3nc4c(c(-c5ccc(Cl)cc5)c3=O)n(CC3CC3)c(=O)n4C)ccc2n1 [Example 199, 4-(4-chlorophenyl)-5-(cyclopropylmethyl)-7-methyl-2-(2-methyl-2H-indazol-5-yl)-2,7-dihydro-3H-imidazo[4,5-c]pyridazine-3,6(5H)-dione] |
